Earlier results, collected in patent US20030180354A1 (DR. REDDY'S LABORATORIES LIMITED, priority 2001, published 2003).

Conditions: in man

Oral bioavailability: 64%
Compound: CCOC(=O)C1=C(COCCN)NC(C)=C(C(=O)OC)C1c1ccccc1Cl (racemic) [Amlodipine, (±)-2-[(2-Aminoethoxy)methyl]-4-(2-chlorophenyl)-3-ethoxycarbonyl-5-methoxycarbonyl-6-methyl-1,4-dihydropyridine]
